Legend:
mice = assay: Amount of mice water intake (Example 12); assay type: in vivo, mouse; details: 10 mg/kg per day orally in drinking water; normal or high-fat diet
Description: In order to measure the amount of mice water intake, 4 weeks-old male mice (C57BL/6 Cr Slc) were divided into four groups (each consisting of 7-8 mice), were isolated from one another so that there would be one mouse per cage. The mice were then habituated for 2 days. The amount of mice water intake was measured every 24 hours for 4 days from the forenoon on the second day of the habituation, and the amount of mice water intake for 4 days was summed up. • Group 1: Normal diet (10 kcal % fat) only • Group 2: High-fat diet (60 kcal % fat) only • Group 3: Normal diet+flurbiprofen • Group 4: High-fat diet+flurbiprofen Flurbiprofen (F8514, produced by SIGMA) was diluted with drinking water so that the administration amount of flurbiprofen would be 10 mg/kg per day, and was orally administered to the mice in the form of drinking water. FIG. 18 is a graph showing the result of the measurement of the amount of mice water intake. Values in the graph of FIG. 18 are averages of the total amounts (g) of water intake of mice of each group for 4 days (± their standard deviations) (n=7-8 with respect to each group). Further, statistic analysis was carried out using t-test.

[1] = system: mice given high-fat diet for 6 months (leptin resistance); assay: Body weight of leptin-resistant mice (6 months high-fat diet), therapeutic effect (Example 8); assay type: in vivo, mouse; details: 3 mg/kg per day orally
Description: In Example 8, effectiveness of flurbiprofen in ameliorating leptin resistance was confirmed by measuring a change in body weight of mice as a reference index. Specifically, 4 weeks-old male mice (C57BL/6 Cr Slc) had been given high-fat diet for 6 months so that leptin resistance would be induced in the mice. Thereafter, the mice were divided into two groups (each consisting of 14 mice), and the mice of individual groups were given the following diets for 3 weeks. • Control group (Cont): normal diet (10 kcal % fat) only • Flurbiprofen-administered group (Ful): normal diet+flurbiprofen Flurbiprofen (F8514, produced by SIGMA) was diluted with drinking water so that the administration amount of flurbiprofen would be 3 mg/kg per day, and was orally administered to the mice in the form of drinking water. The rates of change in body weight of the mice of individual groups were measured with the date when administration of flurbiprofen started (0 week) as a reference. Further, the amount of visceral fat (g) was measured. The visceral fat was extracted from abdomens of the mice and wet weight thereof was measured. FIGS. 13 and 14 show the result. FIG. 13 is a graph showing the rates of change in body weight of the mice of the control group and the mice of the flurbiprofen-administered group. […]

## C[C@@H](C(=O)O)c1ccc(-c2ccccc2)c(F)c1 [flurbiprofen]
mice
  total amount of water intake for 4 days: constant regardless of whether flurbiprofen was administered or not
[1]; rate of change in body weight vs control group
  time after administration at which the effect of ameliorating leptin resistance is observed: 1 week
[1]; 3 weeks after the administration of flurbiprofen, normal diet after 6 months high-fat diet, before administration 53.479±0.7804 g, control 48.371±0.6387 g, P<0.05
  average body weight: 45.543 ± 1.1103 g

Source: US9132108B2, “Pharmaceutical composition for ameliorating and/or preventing leptin resistance, and use thereof” (HIROSHIMA UNIVERSITY, priority 2009, dated 2015)
